These results are taken from ChEMBL document CHEMBL5614443, “Hybrids of 3-Hydroxypyridin-4(1H)-ones and Long-Chain 4-Aminoquinolines as Potent Biofilm Inhibitors of Pseudomonas aeruginosa Potentiate Tobramycin and Polymyxin B Activity” (J Med Chem, 2024).

The source made the active and inactive calls. The rule behind the calls is not given here.

For data set [1], the system named is Pseudomonas aeruginosa. Description: Synergistic antibacterial activity against Pseudomonas aeruginosa PAO1 assessed as reduction in cell viability at 10 to 50 uM incubated for 24 hrs in the presence of 1/8 MIC of tobramycin by LB agar plate method. Type of data set: functional, organism-based. Particulars: dose 10-50 µM.
The test system of data set [2] is Pseudomonas aeruginosa. Description: Antibacterial activity against Pseudomonas aeruginosa PAO1 assessed as inhibition of bacterial growth incubated for 24 hrs by CLSI protocol based method. Type of data set: functional.
For data set [3], the system named is Pseudomonas aeruginosa. Put plainly: Inhibition of motility in Pseudomonas aeruginosa PAO1 assessed as reduction in swimming movements incubated for 16 hrs by motility assay. Type of data set: functional, organism-based. The following applies: dose 1.25-50 µM.
Data set [4] concerns Pseudomonas aeruginosa. Put plainly: Synergistic antibacterial activity against Pseudomonas aeruginosa clinical isolate 0815 assessed as reduction in bacterial viability at 10 to 50 uM incubated for 24 hrs in presence of 1/4 MIC of tobramycin by LB agar plate method. Type of data set: functional, organism-based. Particulars: dose 10-50 µM.
For data set [5], the system named is Pseudomonas aeruginosa. Description: Synergistic antibacterial activity against Pseudomonas aeruginosa clinical isolate 1121 assessed as reduction in bacterial viability at 10 to 50 uM incubated for 24 hrs in presence of 1/2 MIC of polymyxin B by LB agar plate method. Type of data set: functional, organism-based. The following applies: dose 10-50 µM.
Data set [6] can be described thus: Cytotoxicity against African green monkey Vero cells assessed as reduction in cell viability at <=100 uM incubated for 24 hrs by MTT assay. Type of data set: toxicity, cell-based. The following applies: chlorocebus sabaeus.
A short description of data set [7]: Inhibition of quorum sensing system in wildtype Pseudomonas aeruginosa PAO1 assessed as inhibition of pyocyanin production incubated for 24 hrs by absorbance based analysis.
Data set [8] concerns Pseudomonas aeruginosa. Put plainly: Synergistic antibacterial activity against Pseudomonas aeruginosa clinical isolate 1167 assessed as reduction in bacterial viability at 10 to 50 uM incubated for 24 hrs in presence of 1/4 MIC of polymyxin B by LB agar plate method. Type of data set: functional, organism-based. Particulars: dose 10-50 µM.
The test system of data set [9] is Pseudomonas aeruginosa. Put plainly: Synergistic antibacterial activity against Pseudomonas aeruginosa PAO1 assessed as reduction in cell viability at 10 to 50 uM incubated for 24 hrs in the presence of 1/4 MIC of polymyxin B by LB agar plate method. Particulars: dose 10-50 µM. Type of data set: functional, organism-based.
The subject of data set [10] is Pseudomonas aeruginosa. Description: Antibiofilm activity against Pseudomonas aeruginosa overexpressing fpvA assessed as inhibition of biofilm formation at 20 uM incubated for 24 hrs by crystal violet staining based analysis relative to control. Type of data set: functional.
In data set [11] the test system is Pseudomonas aeruginosa. Description: Synergistic antibacterial activity against Pseudomonas aeruginosa PAO1 assessed as reduction in cell viability at 10 to 50 uM incubated for 24 hrs in the presence of 1/8 MIC of polymyxin B by LB agar plate method. Type of data set: functional, organism-based. The following applies: dose 10-50 µM.
For data set [12], the system named is Pseudomonas aeruginosa. Description: Synergistic antibacterial activity against Pseudomonas aeruginosa PAO1 assessed as fold reduction in bacterial survival rate incubated for 24 hrs in presence of norfloxacin by LB agar plate method. Type of data set: functional.
Data set [13] concerns Pseudomonas aeruginosa. Put plainly: Antibacterial activity against Pseudomonas aeruginosa 27853 assessed as inhibition of bacterial growth incubated for 24 hrs by CLSI protocol based method. Type of data set: functional, organism-based.
The subject of data set [14] is Pseudomonas aeruginosa. Description: Induction of Fe3+ chelating activity in Pseudomonas aeruginosa PAO1 assessed as increase in pyoverdine production by measuring fold change at 20 uM incubated for 24 hrs by fluorescence microplate reader.
For data set [15], the system named is Pseudomonas aeruginosa. Put plainly: Synergistic antibacterial activity against Pseudomonas aeruginosa clinical isolate 0815 assessed as reduction in bacterial viability at 10 to 50 uM incubated for 24 hrs in presence of 1/2 MIC of tobramycin by LB agar plate method. Type of data set: functional, organism-based. Particulars: dose 10-50 µM.
Data set [16] can be described thus: Hemolytic activity in rabbit erythrocytes assessed as hemolysis rate at 200 uM incubated for 2 hrs by microplate reader analysis (reference value: 100 %). Type of data set: toxicity, cell-based, Oryctolagus cuniculus, Erythrocyte. Particulars: read-out: Activity.
Data set [17] has as its system Pseudomonas aeruginosa. Description: Antibacterial activity against Pseudomonas aeruginosa PAO1 infected in Caenorhabditis elegans assessed as worm survival at 10 uM by bright-field microscopic analysis (reference value: 24 hrs). Type of data set: functional.
The test system of data set [18] is Pseudomonas aeruginosa. Description: Synergistic antibacterial activity against Pseudomonas aeruginosa PAO1 assessed as reduction in cell viability at 10 to 50 uM incubated for 24 hrs in the presence of 1/2 MIC of polymyxin B by LB agar plate method. Type of data set: functional, organism-based. Particulars: dose 10-50 µM.
The nature of data set [19]: Inhibition of quorum sensing system in wildtype Pseudomonas aeruginosa PAO1 assessed as inhibition of rhamnolipid production incubated for 24 hrs by absorbance based microtiter plate reader analysis.
Data set [20] deals with Pseudomonas aeruginosa. Description: Synergistic antibacterial activity against Pseudomonas aeruginosa clinical isolate 1121 assessed as reduction in bacterial viability at 10 to 50 uM incubated for 24 hrs in presence of 1/8 MIC of polymyxin B by LB agar plate method. Type of data set: functional, organism-based. Particulars: dose 10-50 µM.
Data set [21] concerns Pseudomonas aeruginosa. Description: Antibiofilm activity against Pseudomonas aeruginosa PAO1 assessed as decrease in biofilm formation incubated for 24 hrs by LIVE/DEAD BacLight staining based 3D confocal laser scanning microscopy. Type of data set: functional, organism-based. Particulars: dose 1-10 µM.
Data set [22] concerns Pseudomonas aeruginosa. Put plainly: Synergistic antibacterial activity against Pseudomonas aeruginosa PAO1 assessed as fold reduction in bacterial survival rate incubated for 24 hrs in presence of ceftazidime by LB agar plate method. Type of data set: functional.
Data set [23] is described as follows: Inhibition of quorum sensing system in Pseudomonas aeruginosa PAO1 transfected with mini-ctx-lasB-lacZ reporter gene assessed as decrease in beta-galactosidase activity incubated for 6 hrs by Miller assay. The following applies: dose 1.25-20 µM.
The test system of data set [24] is Pseudomonas aeruginosa. Put plainly: Antivirulence activity in Pseudomonas aeruginosa clinical isolate 0815 assessed as reduction in pyocyanin production at 10 uM incubated for 24 hrs by absorbance based analysis. Type of data set: functional, organism-based.

As to `Cc1cc(=O)c(O)c(C(=O)NCCCCCCCCNc2ccnc3cc(Cl)ccc23)n1C.Cl`, the result in [1], in [4], in data set [5], in data set [8], in [9] and in data set [11] was Active. Further, the outcome in [15], in data set [18], in [20] and in data set [24] was Active. For the same compound, the MIC in [2] was at least 512 µM. The inhibition result in data set [3] and in data set [23] was “Dose-Dependent Effect” in each case. Further, the Activity result was “Non-Toxic” in data set [6] and “Dose-Dependent Effect” in data set [21]. Further, the IC50 turned out to be 6.9 µM in [7] and 39.2 µM in data set [19]. The inhibition at 20 µM in data set [10] is around 30%. For the same compound, the results for the “fold change (FC)” value in data set [12], in [14] and in [22] were below 10, 10 and below 10, respectively. Further, in data set [13], the outcome was inactive. Besides, the hemolysis at 2 h, 200 µM in [16] was below 1.5%. Further, in data set [17], the Survival was 32 h.
